Key:
Assay type in all cases: in vivo
[1] = system: Echinochloa oryzacola Vasing.; assay: Test Example 1: herbicidal activity, application before weed generation in submerged conditions (symbol A); conditions: application herbicide amount 320 g/ha
Summary of the method: (§1)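 Steps: alluvial soil flooded to 4 cm; weed seeds sown together; rice seedlings (2.5 leaf) transplanted; diluted emulsion applied to water surface the same day as sowing; plants grown at 25–30 °C in greenhouse; herbicidal effect rated on a 0–5 scale at 3 weeks.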

[2] = system: Scirpus juncoides; assay: Test Example 1: herbicidal activity, application before weed generation in submerged conditions (symbol B); conditions: application herbicide amount 320 g/ha
Summary of the method: as §1

[3] = system: Setaria viridis; assay: Test Example 4: herbicidal effect by soil treatment (symbol G); conditions: application herbicide amount 320 g/ha
Summary of the method: (§2)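 Seeds were sown in sterilized diluvial soil, covered with about 1.5 cm of soil, and the soil surface was sprayed with a water-diluted emulsion of the compound at a predetermined rate. Plants grew in a greenhouse at 25° C. to 30° C.; effects were scored visually 3 weeks after application.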

[4] = system: Amaranthus retroflexus; assay: Test Example 4: herbicidal effect by soil treatment (symbol N); conditions: application herbicide amount 320 g/ha
Summary of the method: as §2

[5] = system: Galium spurium; assay: Test Example 4: herbicidal effect by soil treatment (symbol Q); conditions: application herbicide amount 320 g/ha
Summary of the method: as §2

[6] = system: Veronica persica; assay: Test Example 4: herbicidal effect by soil treatment (symbol R); conditions: application herbicide amount 320 g/ha
Summary of the method: as §2

[7] = system: Setaria viridis; assay: Test Example 5: herbicidal effect by foliage application, plastic box (symbol G); conditions: 320 g/ha, 3 weeks after application
Summary of the method: (§3)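 Leaf-applied emulsion, water-diluted to a preset herbicide dose, on two-week-old seedlings raised in a 25° C. to 30° C. greenhouse; injury rated at 3 weeks using earlier criteria.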

[8] = system: Echinochloa crus-galli var. crus-galli; assay: Test Example 5: herbicidal effect by foliage application, plastic box (symbol H); conditions: 320 g/ha, 3 weeks after application
Summary of the method: as §3

[9] = system: Alopecurus myosuroides; assay: Test Example 5: herbicidal effect by foliage application, plastic box (symbol J); conditions: 320 g/ha, 3 weeks after application
Summary of the method: as §3

CON=C(C)CC1CC(OC(=O)N2CCOCC2)=C(c2c(C)cc(-c3ccc(F)c(Cl)c3)cc2C)C1=O (centres unmarked) [6-093]
Herbicidal effect grade, A: Echinochloa oryzacola Vasing. [1]: 5 (Herbicidal ratio of 90% or more (almost completely withered)) | Herbicidal effect grade, B: Scirpus juncoides [2]: 5 (Herbicidal ratio of 90% or more (almost completely withered)) | Herbicidal effect grade, G: Setaria viridis [3]: 5 (Herbicidal ratio of 90% or more (almost completely withered)) | Herbicidal effect grade, N: Amaranthus retroflexus [4]: 0 (Herbicidal ratio of 5% or lower (almost no effect)) | Herbicidal effect grade, Q: Galium spurium [5]: 0 (Herbicidal ratio of 5% or lower (almost no effect)) | Herbicidal effect grade, R: Veronica persica [6]: 4 (Herbicidal ratio of 70% or higher and lower than 90%) | G: Setaria viridis, herbicidal effect (criteria of Test Example 1) [7]: 5 (Herbicidal ratio of 90% or more (almost completely withered)) | H: Echinochloa crus-galli var. crus-galli, herbicidal effect (criteria of Test Example 1) [8]: 5 (Herbicidal ratio of 90% or more (almost completely withered)) | J: Alopecurus myosuroides, herbicidal effect (criteria of Test Example 1) [9]: 5 (Herbicidal ratio of 90% or more (almost completely withered))

CC#Cc1cc(C)c(C2=C(O)CC(CC(C)=O)C2=O)c(C)c1 (centres unmarked) [7-010]
Herbicidal effect grade, A: Echinochloa oryzacola Vasing. [1]: 5 (Herbicidal ratio of 90% or more (almost completely withered)) | Herbicidal effect grade, B: Scirpus juncoides [2]: 5 (Herbicidal ratio of 90% or more (almost completely withered)) | Herbicidal effect grade, G: Setaria viridis [3]: 5 (Herbicidal ratio of 90% or more (almost completely withered)) | Herbicidal effect grade, N: Amaranthus retroflexus [4]: 0 (Herbicidal ratio of 5% or lower (almost no effect)) | Herbicidal effect grade, Q: Galium spurium [5]: 0 (Herbicidal ratio of 5% or lower (almost no effect)) | Herbicidal effect grade, R: Veronica persica [6]: 3 (Herbicidal ratio of 40% or higher and lower than 70%) | G: Setaria viridis, herbicidal effect (criteria of Test Example 1) [7]: 5 (Herbicidal ratio of 90% or more (almost completely withered)) | H: Echinochloa crus-galli var. crus-galli, herbicidal effect (criteria of Test Example 1) [8]: 5 (Herbicidal ratio of 90% or more (almost completely withered)) | J: Alopecurus myosuroides, herbicidal effect (criteria of Test Example 1) [9]: 5 (Herbicidal ratio of 90% or more (almost completely withered))

CON=C(C)CC1CC(O)=C(c2c(C)cc(-c3ccc(OC(F)(F)F)cc3)cc2C)C1=O (mixture of isomers) [6-056]
Herbicidal effect grade, A: Echinochloa oryzacola Vasing. [1]: 3 (Herbicidal ratio of 40% or higher and lower than 70%) | Herbicidal effect grade, B: Scirpus juncoides [2]: 0 (Herbicidal ratio of 5% or lower (almost no effect)) | G: Setaria viridis, herbicidal effect grade [3]: 2 (Herbicidal ratio of 20% or higher and lower than 40%) | N: Amaranthus retroflexus, herbicidal effect grade [4]: 0 (Herbicidal ratio of 5% or lower (almost no effect)) | Q: Galium spurium, herbicidal effect grade [5]: 0 (Herbicidal ratio of 5% or lower (almost no effect)) | R: Veronica persica, herbicidal effect grade [6]: 0 (Herbicidal ratio of 5% or lower (almost no effect)) | G: Setaria viridis, herbicidal effect (criteria of Test Example 1) [7]: 5 (Herbicidal ratio of 90% or more (almost completely withered)) | H: Echinochloa crus-galli var. crus-galli, herbicidal effect (criteria of Test Example 1) [8]: 4 (Herbicidal ratio of 70% or higher and lower than 90%) | J: Alopecurus myosuroides, herbicidal effect (criteria of Test Example 1) [9]: 3 (Herbicidal ratio of 40% or higher and lower than 70%)

CC(CC1CC(O)=C(c2c(C)cc(C)cc2C)C1=O)=NOCc1ccccc1 (centres unmarked) [1-020]
Herbicidal effect grade, A: Echinochloa oryzacola Vasing. [1]: 5 (Herbicidal ratio of 90% or more (almost completely withered)) | Herbicidal effect grade, B: Scirpus juncoides [2]: 5 (Herbicidal ratio of 90% or more (almost completely withered)) | G (Setaria viridis) herbicidal effect grade [3]: 5 (Herbicidal ratio of 90% or more (almost completely withered)) | N (Amaranthus retroflexus) herbicidal effect grade [4]: 0 (Herbicidal ratio of 5% or lower (almost no effect)) | Q (Galium spurium) herbicidal effect grade [5]: 0 (Herbicidal ratio of 5% or lower (almost no effect)) | G: Setaria viridis, herbicidal effect grade [7]: 5 (Herbicidal ratio of 90% or more (almost completely withered)) | H: Echinochloa crus-galli var. crus-galli, herbicidal effect grade [8]: 5 (Herbicidal ratio of 90% or more (almost completely withered)) | J: Alopecurus myosuroides, herbicidal effect grade [9]: 5 (Herbicidal ratio of 90% or more (almost completely withered))

— patent US11000033B2, “Ketone or oxime compound, and herbicide” (NISSAN CHEMICAL CORPORATION, priority 2014, dated 2021)
